# Reference: PubChem BioAssay AID256 (DTP/NCI, 2004)
# Values joined by “and” are separate entries in the source; they are usually repeats but may differ in a detail not shown here. Equal values may be shown once. Inconclusive results and toxic doses are left out.
# System: CD2F1 mice, L1210 leukemia ip, survival T/C
# Assay: NCI In Vivo Anticancer Drug Screen. Data for tumor model L1210 Leukemia (intraperitoneal) in CD2F1 (CDF1) mice
# Conditions: higher = longer survival
# How it was run: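 Tumor-bearing mice (transplanted tumor) were split into treated and vehicle control groups, and the measured endpoint of each treated group was divided by that of its vehicle controls.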
# [1] = endpoint: mean survival time, dose: 100.0 mg/kg/injection, schedule: Q04DX003 (ip), vehicle: saline with Tween-80
# [2] = endpoint: mean survival time, dose: 200.0 mg/kg/injection, schedule: Q04DX003 (ip), vehicle: saline with Tween-80
# [3] = endpoint: mean survival time, dose: 400.0 mg/kg/injection, schedule: Q04DX003 (ip), vehicle: saline with Tween-80
# [4] = endpoint: mean survival time, dose: 50.0 mg/kg/injection, schedule: Q01DX009 (ip), vehicle: saline
# [5] = endpoint: mean survival time, dose: 100.0 mg/kg/injection, schedule: Q01DX009 (ip), vehicle: saline
# [6] = endpoint: mean survival time, dose: 200.0 mg/kg/injection, schedule: Q01DX009 (ip), vehicle: saline
compound,measurement,setting,value
CC(=O)CC(=O)OCOC(=O)CC(C)=O,T/C,"endpoint: mean survival time, dose: 100.0 mg/kg/injection, schedule: Q04DX003 (ip), vehicle: Klucel (hydroxypropylcellulose) (HPC)",102 % of control
same,T/C,"endpoint: mean survival time, dose: 200.0 mg/kg/injection, schedule: Q04DX003 (ip), vehicle: Klucel (hydroxypropylcellulose) (HPC)",106 % of control
same,T/C,"endpoint: mean survival time, dose: 400.0 mg/kg/injection, schedule: Q04DX003 (ip), vehicle: Klucel (hydroxypropylcellulose) (HPC)",106 % of control
CC(=O)OC1OC(=O)C(C)(C(C)=O)C1C (stereo not drawn),T/C,"endpoint: median survival time, dose: 2.5 mg/kg/injection, schedule: Q01DX009 (ip), vehicle: distilled water + alcohol",103 % of control
same,T/C,"endpoint: median survival time, dose: 5.0 mg/kg/injection, schedule: Q01DX009 (ip), vehicle: distilled water + alcohol",101 % of control
same,T/C,"endpoint: median survival time, dose: 10.0 mg/kg/injection, schedule: Q01DX009 (ip), vehicle: distilled water + alcohol",104 % of control
same,T/C,"endpoint: median survival time, dose: 20.0 mg/kg/injection, schedule: Q01DX009 (ip), vehicle: distilled water + alcohol",103 % of control
CC(=O)NC(C(=O)O)C(C)C.CC(=O)NC(C(=O)O)C(C)C.[NH-]C1CCCCC1[NH-].[Pt+2] (stereo not drawn),T/C,"endpoint: median survival time, dose: 3.12 mg/kg/injection, schedule: Q04DX003 (ip), vehicle: saline",102 % of control and 107 % of control and 108 % of control
same,T/C,"endpoint: median survival time, dose: 6.25 mg/kg/injection, schedule: Q04DX003 (ip), vehicle: saline",107 % of control [middle of 4 runs]
same,T/C,"endpoint: median survival time, dose: 12.5 mg/kg/injection, schedule: Q04DX003 (ip), vehicle: saline",112 % of control [middle of 4 runs]
same,T/C,"endpoint: median survival time, dose: 25.0 mg/kg/injection, schedule: Q04DX003 (ip), vehicle: saline",112 % of control [middle of 4 runs]
same,T/C,"endpoint: median survival time, dose: 50.0 mg/kg/injection, schedule: Q04DX003 (ip), vehicle: saline",122 % of control and 119 % of control
same,T/C,"endpoint: median survival time, dose: 200.0 mg/kg/injection, schedule: Q04DX003 (ip), vehicle: saline",187 % of control [middle of 4 runs]
CCOC(=O)CCC[P+](c1ccccc1)(c1ccccc1)c1ccccc1,T/C,[1],100 % of control
same,T/C,[2],100 % of control
same,T/C,[3],98 % of control
C=C1C(=O)O[C@@H]2[C@H]1CC[C@H](C)[C@]1(O)CCC(=O)[C@@]21C,T/C,"endpoint: mean survival time, dose: 100.0 mg/kg/injection, schedule: Q01DX009 (ip), vehicle: saline with Tween-80",98 % of control
same,T/C,"endpoint: mean survival time, dose: 200.0 mg/kg/injection, schedule: Q01DX009 (ip), vehicle: saline with Tween-80",101 % of control
same,T/C,"endpoint: mean survival time, dose: 400.0 mg/kg/injection, schedule: Q01DX009 (ip), vehicle: saline with Tween-80",110 % of control
OCCOCCN1CCN(CC/C=C2\c3ccccc3Sc3ccc(C(F)(F)F)cc32)CC1,T/C,"endpoint: mean survival time, dose: 0.75 mg/kg/injection, schedule: Q01DX009 (ip), vehicle: saline",87 % of control
same,T/C,"endpoint: mean survival time, dose: 1.5 mg/kg/injection, schedule: Q01DX009 (ip), vehicle: saline",94 % of control
same,T/C,"endpoint: mean survival time, dose: 3.0 mg/kg/injection, schedule: Q01DX009 (ip), vehicle: saline",100 % of control
same,T/C,"endpoint: mean survival time, dose: 6.25 mg/kg/injection, schedule: Q04DX003 (ip), vehicle: saline",103 % of control
same,T/C,"endpoint: mean survival time, dose: 8.0 mg/kg/injection, schedule: Q04DX003 (ip), vehicle: saline with Tween-80",115 % of control
same,T/C,"endpoint: mean survival time, dose: 12.0 mg/kg/injection, schedule: Q04DX003 (ip), vehicle: saline with Tween-80",116 % of control
same,T/C,"endpoint: mean survival time, dose: 25.0 mg/kg/injection, schedule: Q04DX003 (ip), vehicle: saline",97 % of control
same,T/C,"endpoint: mean survival time, dose: 50.0 mg/kg/injection, schedule: Q04DX003 (ip), vehicle: saline",111 % of control
same,T/C,"endpoint: mean survival time, dose: 100.0 mg/kg/injection, schedule: Q04DX003 (ip), vehicle: saline",93 % of control
O=C(O/N=C(\C(=O)c1ccccc1)c1ccccc1)c1ccc(Br)cc1,T/C,"endpoint: mean survival time, dose: 100.0 mg/kg/injection, schedule: Q01DX001 (ip), vehicle: saline with Tween-80",90 % of control
same,T/C,"endpoint: mean survival time, dose: 200.0 mg/kg/injection, schedule: Q01DX001 (ip), vehicle: saline with Tween-80",90 % of control
Cc1cn(C2CC(O)C(COP(N)(N)=O)O2)c(=O)[nH]c1=O (stereo not drawn),T/C,"endpoint: mean survival time, dose: 12.5 mg/kg/injection, schedule: Q01DX005 (ip), vehicle: distilled water + Tween-80",98 % of control
same,T/C,"endpoint: mean survival time, dose: 25.0 mg/kg/injection, schedule: Q01DX005 (ip), vehicle: distilled water + Tween-80",98 % of control
same,T/C,"endpoint: mean survival time, dose: 50.0 mg/kg/injection, schedule: Q01DX005 (ip), vehicle: distilled water + Tween-80",98 % of control
same,T/C,"endpoint: mean survival time, dose: 100.0 mg/kg/injection, schedule: Q01DX005 (ip), vehicle: distilled water + Tween-80",96 % of control
same,T/C,"endpoint: mean survival time, dose: 200.0 mg/kg/injection, schedule: Q01DX005 (ip), vehicle: distilled water + Tween-80",98 % of control
O=C(CCl)Nc1ccc([N+](=O)[O-])cc1,T/C,"endpoint: mean survival time, dose: 400.0 mg/kg/injection, schedule: Q04DX002 (ip), vehicle: saline with Tween-80",87 % of control
CC(=O)N1CCN(C(C)=O)c2ccccc21,T/C,[1],101 % of control
same,T/C,[2],101 % of control
same,T/C,[3],93 % of control
O=C(O)Cc1cccc2c(=O)cc(-c3ccccc3)oc12,T/C,"endpoint: median survival time, dose: 12.5 mg/kg/injection, schedule: Q01DX009 (ip), vehicle: suspension in saline",113 % of control and 109 % of control
same,T/C,"endpoint: median survival time, dose: 25.0 mg/kg/injection, schedule: Q01DX009 (ip), vehicle: suspension in saline",113 % of control and 105 % of control
same,T/C,"endpoint: median survival time, dose: 30.0 mg/kg/injection, schedule: Q01DX009 (ip), vehicle: saline with Tween-80",112 % of control
same,T/C,"endpoint: median survival time, dose: 30.0 mg/kg/injection, schedule: Q01DX009 (ip), vehicle: sodium bicarbonate",100 % of control
same,T/C,"endpoint: median survival time, dose: 44.0 mg/kg/injection, schedule: Q01DX009 (ip), vehicle: saline with Tween-80",123 % of control
same,T/C,"endpoint: median survival time, dose: 44.0 mg/kg/injection, schedule: Q01DX009 (ip), vehicle: sodium bicarbonate",113 % of control
same,T/C,"endpoint: median survival time, dose: 45.0 mg/kg/injection, schedule: Q01DX009 (ip), vehicle: sodium bicarbonate",107 % of control
same,T/C,"endpoint: median survival time, dose: 50.0 mg/kg/injection, schedule: Q01DX009 (ip), vehicle: suspension in saline",116 % of control
same,T/C,"endpoint: median survival time, dose: 67.0 mg/kg/injection, schedule: Q01DX001 (ip), vehicle: sodium bicarbonate",101 % of control
same,T/C,"endpoint: median survival time, dose: 67.0 mg/kg/injection, schedule: Q01DX009 (ip), vehicle: sodium bicarbonate",113 % of control and 112 % of control
same,T/C,"endpoint: median survival time, dose: 100.0 mg/kg/injection, schedule: Q01DX001 (ip), vehicle: sodium bicarbonate",108 % of control
same,T/C,"endpoint: median survival time, dose: 100.0 mg/kg/injection, schedule: Q01DX009 (ip), vehicle: saline with Tween-80",124 % of control
same,T/C,"endpoint: median survival time, dose: 100.0 mg/kg/injection, schedule: Q01DX009 (ip), vehicle: sodium bicarbonate",119 % of control and 124 % of control
same,T/C,"endpoint: median survival time, dose: 100.0 mg/kg/injection, schedule: Q01DX009 (ip), vehicle: suspension in saline",113 % of control
same,T/C,"endpoint: median survival time, dose: 150.0 mg/kg/injection, schedule: Q01DX001 (ip), vehicle: sodium bicarbonate",112 % of control
same,T/C,"endpoint: median survival time, dose: 150.0 mg/kg/injection, schedule: Q01DX009 (ip), vehicle: saline with Tween-80",108 % of control
same,T/C,"endpoint: median survival time, dose: 175.0 mg/kg/injection, schedule: Q01DX009 (ip), vehicle: sodium bicarbonate",156 % of control
same,T/C,"endpoint: median survival time, dose: 200.0 mg/kg/injection, schedule: Q01DX009 (ip), vehicle: suspension in saline",103 % of control
same,T/C,"endpoint: median survival time, dose: 223.0 mg/kg/injection, schedule: Q01DX001 (ip), vehicle: sodium bicarbonate",108 % of control
same,T/C,"endpoint: median survival time, dose: 333.0 mg/kg/injection, schedule: Q01DX001 (ip), vehicle: sodium bicarbonate",121 % of control
CC1(C)CC(C)(OC(=O)c2ccccc2)[N+]([O-])=N1 (stereo not drawn),T/C,"endpoint: mean survival time, dose: 25.0 mg/kg/injection, schedule: Q01DX009 (ip), vehicle: Klucel (hydroxypropylcellulose) (HPC)",100 % of control
same,T/C,"endpoint: mean survival time, dose: 50.0 mg/kg/injection, schedule: Q01DX009 (ip), vehicle: Klucel (hydroxypropylcellulose) (HPC)",98 % of control
same,T/C,"endpoint: mean survival time, dose: 100.0 mg/kg/injection, schedule: Q01DX009 (ip), vehicle: Klucel (hydroxypropylcellulose) (HPC)",98 % of control
same,T/C,"endpoint: mean survival time, dose: 200.0 mg/kg/injection, schedule: Q01DX009 (ip), vehicle: Klucel (hydroxypropylcellulose) (HPC)",95 % of control
same,T/C,"endpoint: mean survival time, dose: 400.0 mg/kg/injection, schedule: Q01DX009 (ip), vehicle: Klucel (hydroxypropylcellulose) (HPC)",98 % of control
C=C(C)CC#N,T/C,[4],92 % of control
same,T/C,[5],95 % of control
same,T/C,[6],100 % of control
CC1(C(=O)Sc2ccccc2)OC1(C)c1ccccc1 (stereo not drawn),T/C,"endpoint: mean survival time, dose: 100.0 mg/kg/injection, schedule: Q01DX001 (ip), vehicle: Klucel (hydroxypropylcellulose) (HPC)",97 % of control
same,T/C,"endpoint: mean survival time, dose: 200.0 mg/kg/injection, schedule: Q01DX001 (ip), vehicle: Klucel (hydroxypropylcellulose) (HPC)",108 % of control
same,T/C,"endpoint: mean survival time, dose: 400.0 mg/kg/injection, schedule: Q01DX001 (ip), vehicle: Klucel (hydroxypropylcellulose) (HPC)",97 % of control
Clc1ccc(OCCCCCNCCSSCCNCCCCCOc2ccc(Cl)cn2)nc1,T/C,"endpoint: mean survival time, dose: 75.0 mg/kg/injection, schedule: Q01DX001 (ip), vehicle: other",101 % of control
same,T/C,"endpoint: mean survival time, dose: 150.0 mg/kg/injection, schedule: Q01DX001 (ip), vehicle: other",103 % of control
same,T/C,"endpoint: mean survival time, dose: 300.0 mg/kg/injection, schedule: Q01DX001 (ip), vehicle: other",106 % of control
C=CCNc1ccc(OC)cc1,T/C,[1],101 % of control
same,T/C,[2],95 % of control
COCCCN=C(N)N,T/C,[4],102 % of control
same,T/C,[5],105 % of control
same,T/C,[6],96 % of control
